Holding throughout (format): biochemical
The target of assay [1] is T1, catalytic domain of human MMP-13 (Homo sapiens, UniProt P45452).
T1 construct: 2.5 nM of the catalytic domain of human MMP-13
As to the kind of experiment: Inhibition of proteolysis of thioester peptide substrate by MMP-13. The settings on record: peptide substrate Ac-Pro-Leu-Gly-thioester-Leu-Leu-Gly-OEt 100 μM, pH 7.0, absorbance at 405 nm. As to the method:
(§1) The inhibitory activity of the compounds of formula (I) according to the invention with respect to matrix metalloprotease-13 is evaluated by testing the ability of the compounds of the invention to inhibit the proteolysis of a peptide substrate with MMP-13.
(§2) The peptide substrate used in the test is the following peptide: Ac-Pro-Leu-Gly-thioester-Leu-Leu-Gly-OEt.
The inhibitory activity of a compound of formula (I) according to the invention is expressed as the IC50 value, which is the concentration of inhibitor for which an inhibition of 50% of the activity of the matrix metalloprotease under consideration is observed.
To carry out this test, a reaction medium of 100 μt volume is prepared, containing: 50 mM of HEPES buffer, 10 mM of CaCl2 and 1 mM of 5,5′-dithiobis-(2-nitrobenzoic acid) (DTNB), and 100 μM of substrate, the pH being adjusted to 7.0.
Increasing concentrations of the inhibitory compound present in a 2.0% DMSO solution and 2.5 nM of the catalytic domain of human MMP-13 are added to the test samples.
(§3) The concentrations of inhibitors present in the test samples range from 100 μM to 0.5 nM. The measurement of the proteolysis of the substrate peptide is monitored by measuring the absorbance at 405 nm using a spectrophotometer for reading microplates, at the laboratory temperature, the measurements being carried out continuously for 10 to 15 minutes.
The IC50 values are calculated from a curve in which the percentage of the catalytic activity relative to the control is represented on the X-axis and the concentration of inhibitor is represented on the Y-axis.

For assay [2], the target named is T2, MMP-1 (Homo sapiens, UniProt P03956).
T2 sequence (P03956 100-469): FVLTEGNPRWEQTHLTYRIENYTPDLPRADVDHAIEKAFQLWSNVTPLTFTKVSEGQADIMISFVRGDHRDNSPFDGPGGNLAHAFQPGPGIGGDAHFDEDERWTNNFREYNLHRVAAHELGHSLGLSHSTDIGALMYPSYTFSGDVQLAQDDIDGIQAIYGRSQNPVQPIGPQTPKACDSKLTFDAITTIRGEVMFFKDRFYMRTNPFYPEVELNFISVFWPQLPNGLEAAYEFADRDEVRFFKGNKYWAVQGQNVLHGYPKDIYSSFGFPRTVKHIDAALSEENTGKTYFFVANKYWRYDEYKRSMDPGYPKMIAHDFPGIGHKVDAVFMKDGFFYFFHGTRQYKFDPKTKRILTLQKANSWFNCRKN
Description: MMP-13 test adapted to MMP-1.

For assay [3], the target named is MMP-3 (Homo sapiens, UniProt P08254). As to the kind of experiment: MMP-13 test adapted to MMP-3. As to the method:
as §1, §2
(§4) The inhibitory activity of a compound of formula (I) according to the invention is expressed as the IC50 value, which is the concentration of inhibitor for which an inhibition of 50% of the activity of the matrix metalloprotease under consideration is observed. […]
as §3
(§5) The IC50 values are calculated from a curve in which the percentage of the catalytic activity relative to the control is represented on the X-axis and the concentration of inhibitor is represented on the Y-axis. […]

Assay [4] deals with T3, MMP-7 (Homo sapiens, UniProt P09237).
T3 sequence (P09237 95-267): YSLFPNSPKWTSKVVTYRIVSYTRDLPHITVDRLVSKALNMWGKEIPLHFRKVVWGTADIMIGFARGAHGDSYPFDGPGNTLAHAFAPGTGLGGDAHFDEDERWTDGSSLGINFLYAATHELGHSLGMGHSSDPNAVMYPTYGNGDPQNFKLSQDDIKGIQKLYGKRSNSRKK
Description: MMP-13 test adapted to MMP-7. On the procedure:
as §1, §2, §4, §3, §5

Chain of MMP-3 (P08254 100-477, species assumed): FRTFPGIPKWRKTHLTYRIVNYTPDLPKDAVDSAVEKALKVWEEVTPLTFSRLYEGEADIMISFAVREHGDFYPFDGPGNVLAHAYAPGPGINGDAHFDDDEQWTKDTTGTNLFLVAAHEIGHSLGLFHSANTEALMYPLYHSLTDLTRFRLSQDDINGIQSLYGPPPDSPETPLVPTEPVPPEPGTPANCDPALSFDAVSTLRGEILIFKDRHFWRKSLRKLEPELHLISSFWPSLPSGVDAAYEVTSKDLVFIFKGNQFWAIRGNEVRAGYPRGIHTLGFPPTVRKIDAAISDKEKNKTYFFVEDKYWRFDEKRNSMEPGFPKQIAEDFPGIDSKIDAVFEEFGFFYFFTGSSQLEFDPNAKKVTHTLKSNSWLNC

For the molecule `COc1ccc(CNC(=O)c2ccc3sc(=O)n(Cc4ccccc4)c(=O)c3c2)cc1` [Example 1, 3-Benzyl-2,4-dioxo-3,4-dihydro-2H-benz[e][1,3]thiazine-6-carboxylic acid 4-methoxy benzylamide], the half-maximal inhibitory concentration (IC50) (in general, the concentration at which inhibition is half-maximal) in assay [1] came out at 0.037 µM; in assay [2] it was 30 µM; in assay [3], 18 µM; in assay [4] it was 30 µM.

In assay [1], `COc1ccc(CNC(=O)c2ccc3oc(=O)n(Cc4ccc(OC)cc4)c(=O)c3c2)cc1` [Example 2] showed an IC50 of 0.063 µM.

Turning to `O=C(O)c1ccc(Cn2c(=O)sc3ccc(C#CCc4ccccc4)cc3c2=O)cc1` [Example 3, 4-[2,4-Dioxo-6-(3-phenyl-prop-1ynyl)-4H-1,3-benzothiazin-3-ylmethyl]-benzoic acid], the IC50 in assay [1] was found to be 0.0012 µM.

(Values after US20040006077A1, “Thiazine and oxazine derivatives as MMP-13 inhibitors” (priority 2002, published 2004).)
